From paper PMC5464343 (Pharmacology Research & Perspectives, 2017)
Positions count from the first letter of the chain named. Names may count otherwise.

Legend:
[1] = tested on: wild‐type CYP450s 1A2, 2C8, 2C9, 2C19, 2D6, 3A4, and 3A5; test: Metabolite identification, wild‐type CYP450‐overexpressing HEK293 microsomes; type: in vitro ADME, human; conditions: compound presented as substrate to overexpressing CYP450 microsomes
UGT2B17 = conditions: HLM panel; ref Sun et al. 2010; cited from earlier work
CYP2D6*2 = conditions: transiently expressed CYP2D6*2, bufuralol 1′‐hydroxylation; ref Sakuyama et al. (2008); cited from earlier work
CYP2C8*4 = tested on: CYP2C8*4; parameters: method as in Kaspera et al. (2010); conditions: recombinant CYP2C8*4; ref Kaspera et al. (2010); cited from earlier work
CYP2C8*2 = tested on: CYP2C8*2; parameters: method as in Kaspera et al. 2010; conditions: E. coli‐expressed CYP2C8*2 vs wild‐type; M‐1 and M‐23 formation; ref Kaspera et al. 2010; cited from earlier work
CYP2C8 = molecular target: T1, CYP2C8 (Homo sapiens, UniProt P10632); conditions: wild‐type CYP2C8*1A; V max/K M
T1 sequence (P10632 1-490): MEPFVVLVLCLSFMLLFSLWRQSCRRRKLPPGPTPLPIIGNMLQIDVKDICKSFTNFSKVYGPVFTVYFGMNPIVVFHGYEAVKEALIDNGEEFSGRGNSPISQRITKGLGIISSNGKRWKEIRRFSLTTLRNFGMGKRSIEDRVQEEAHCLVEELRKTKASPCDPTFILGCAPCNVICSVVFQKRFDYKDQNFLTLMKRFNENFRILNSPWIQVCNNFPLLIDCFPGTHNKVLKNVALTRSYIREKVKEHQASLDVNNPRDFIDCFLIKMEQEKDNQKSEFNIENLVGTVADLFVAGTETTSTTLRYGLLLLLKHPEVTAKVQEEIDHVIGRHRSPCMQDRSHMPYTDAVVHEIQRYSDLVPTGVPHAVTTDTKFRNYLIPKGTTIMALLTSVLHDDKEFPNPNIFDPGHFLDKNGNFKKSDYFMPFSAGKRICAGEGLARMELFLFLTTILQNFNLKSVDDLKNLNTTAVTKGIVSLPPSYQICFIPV

[2] = tested on: CYP2D6^Pro34Ser, Ser486Thr
CYP2C9 = CYP2C9 (Homo sapiens, UniProt P11712); conditions: wild‐type CYP2C9*1A; V max/K M
Sequence of CYP2C9 (P11712 whole entry): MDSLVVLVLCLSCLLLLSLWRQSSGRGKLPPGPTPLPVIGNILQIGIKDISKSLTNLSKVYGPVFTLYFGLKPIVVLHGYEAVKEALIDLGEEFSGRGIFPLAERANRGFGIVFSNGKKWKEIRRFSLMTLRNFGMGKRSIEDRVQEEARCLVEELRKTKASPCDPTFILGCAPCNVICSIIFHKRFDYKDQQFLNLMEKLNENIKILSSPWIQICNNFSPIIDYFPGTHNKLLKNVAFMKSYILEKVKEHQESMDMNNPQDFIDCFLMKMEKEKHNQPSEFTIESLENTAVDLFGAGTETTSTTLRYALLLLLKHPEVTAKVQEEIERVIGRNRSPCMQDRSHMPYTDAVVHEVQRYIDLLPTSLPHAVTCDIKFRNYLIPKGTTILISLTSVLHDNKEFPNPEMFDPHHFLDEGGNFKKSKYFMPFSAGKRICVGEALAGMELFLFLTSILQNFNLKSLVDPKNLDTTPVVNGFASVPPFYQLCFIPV

pooled HLM = tested on: pooled HLM; parameters: method as in Kamdem et al. 2011; conditions: pooled HLM treated with ketoconazole; ref Kamdem et al. 2011; cited from earlier work
[3] = substrate: C=C1C[C@@H]2[C@H](CC[C@]3(C)C(=O)CC[C@@H]23)[C@@]2(C)C=CC(=O)C=C12; test: cells, lysate or membranes named; conditions: other: CYP2C8*3; normalized to relative CYP450 content; pH 7.4; 37.0 °C

In the case of `C[C@]12C=CC(=O)C=C1C(CO)=C[C@@H]1[C@@H]2CC[C@]2(C)C(=O)CC[C@@H]12` [6‐HME, 6‐hydroxymethylandrosta‐1,4,6‐triene‐3,17‐dione], the secondary metabolite formation [1] is reported as “not observed”.

In the case of `C=C1C[C@H]2[C@@H]3CC[C@@H](O)[C@@]3(C)CC[C@@H]2[C@@]2(C)C=CC(=O)C=C12` [17α‐DHE, 17α‐hydroxy‐6‐methyleneandrosta‐1,4‐dien‐3‐one], the secondary metabolite formation [1] is reported as “not observed”.

In the case of `C=C1C[C@H]2[C@@H]3CC[C@H](O)[C@@]3(C)CC[C@@H]2[C@@]2(C)C=CC(=O)C=C12` [17β‐DHE, 17β‐hydroxy‐6‐methyleneandrosta‐1,4‐dien‐3‐one], the secondary metabolite formation [1] is listed as “not observed” and the “glucuronidation (V max/K M) lower in UGT2B17‐null homozygotes (*2/*2) compared to wild‐type homozygotes (*1/*1)” value (UGT2B17) is listed as 36 fold.

In the case of `CCc1cccc2cc(C(O)CNC(C)(C)C)oc12` (stereo not drawn) [bufuralol], the “decrease in substrate affinity” value (CYP2D6*2) is listed as “two‐fold”.

For `COCc1c(C(C)C)nc(C(C)C)c(/C=C/[C@@H](O)C[C@@H](O)CC(=O)O)c1-c1ccc(F)cc1` [cerivastatin], the “increase of combined clearance of the M‐1 and M‐23 cerivastatin metabolites compared to wild‐type” value (CYP2C8*4) is listed as “approximately 2.5 fold” and the “increase in the sum of cerivastatin metabolite clearance” value (CYP2C8*2) is listed as 53%.

In the case of `C=C1C[C@@H]2[C@H](CC[C@]3(C)C(=O)CC[C@@H]23)[C@@]2(C)C=CC(=O)C=C12` [exemestane, 6‐methyleneandrosta‐1,4‐diene‐3,17‐dione], the CLINT (CYP2C8) is reported as 194 nL/min/mg, the CLINT ([2]; CYP2D6*10, V max/K M) is reported as 38 nL/min/mg and the V max ([2]; CYP2D6*10, normalized to relative CYP450 content) is reported as 39 ± 6 pmol/min/mg. For the same molecule, the “increase of the K M value for EXE substrate” value ([2]; CYP2D6*10 vs CYP2D6*1) was 82%, the “decrease in clearance compared to CYP2D6*1” value ([2]; human, microsomes, pH 7.4) was 56% and the CLINT (CYP2C9) was 27 nL/min/mg.

In the case of `CC(=O)N1CCN(c2ccc(OCC3COC(Cn4ccnc4)(c4ccc(Cl)cc4Cl)O3)cc2)CC1` (stereo not drawn) [ketoconazole], the “effect on 6‐HME formation” value (pooled HLM) is listed as “strongly inhibits”.

B1: CYP2C8^Arg139Lys, Lys399Arg (Homo sapiens; K399R/R139K) (protein)
chain: T1 sequence (P10632 1-490) with R139K, K399R
Work on B1 yielded a Vmax [3] of 0.000144 µmol/min/mg.
